# pEC50: −log10 of the molar value.
# Columns and labels:
# MDA-MB-231 cells = assay: Ex vivo ADCC assay with serum of dosed non-human primates, target-negative control cells; assay type: cell-based
# Description: (§1) Non-Human Primates (NHP) received three repetitive doses of 0.1, 0.4 or 1.6 mg/kg RB_RMAB01 once weekly. RiboMab01-containing serum of all monkeys sampled 24 hours (black bars) and 168 hours (white bars) post 1st injection was directed to luciferase-based ex vivo ADCC assays. […] Human PBMCs from two different healthy donors (24 h, donor 1, 168 h, donor 2) served as effector cells. (Panel A) RiboMab01-mediated ADCC of NUG-C4 cells after 48 hours incubation is shown. (Panel B) Unspecific lysis on target-negative MDA-MB-231 cells is shown. Error bars are standard error of the mean (n=3). (Panel C) Serum of NHP No. 14 (1.6 mg/kg RB_RMAB01, RiboMab01 serum concentration 232 μg/mL) collected 48 hours after the 3rd dosing was used for a luciferase-based ex vivo ADCC assays. […] Human PBMCs of a healthy donor served as effector cells. […] Incubation time was 48 hours. Error bars are standard errors of the mean (n=3).
# (§2) ADCC assays were performed as described in Example 2. […] Purified IMAB362 served as assay reference protein.
# [1] = system: CLDN-18.2+ NUG-C4 transfectants; assay: Ex vivo ADCC assay with plasma of dosed mice; assay type: cell-based, human; conditions: 1% plasma sampled 24 hours post 5th IV dosing of 1-30 μg RNA composition, 48 hours, E:T 30:1
# Description: Plasma of mice dosed with five repetitive injections of either 1 μg (˜0.04 mg/kg), 3 μg (˜0.10 mg/kg), 10 μg (˜0.40 mg/kg) and 30 μg (˜1.20 mg/kg) RB_RMAB01 or 80 μg (˜3.20 mg/kg) of IMAB362 was sampled 24 hours post 5th injection and directed to luciferase-based ex vivo ADCC assays. Plasma of untreated mice spiked with IMAB362 served as assay reference. […] (Panel A) RiboMab01 mediated ADCC of NUG-C4 cells after 48 hours incubation with 1% of plasma is shown. […] Error bars are standard errors of the mean (n=3).
# Plasma of untreated mice spiked with IMAB362 served as assay reference.
# [2] = system: CLDN-18.2+ NUG-C4 transfectants; assay: Ex vivo ADCC assay with serum of dosed non-human primates; assay type: cell-based; conditions: for ADCC target cell lysis: serum 24 hours and 168 hours post IV dosing of 0.1, 0.4, 1.6 mg/kg
# Description: as §1, §2
# [3] = system: CLDN-18.2+ CHO-K1 transfectants; assay: In vitro CDC assay (luciferase-based); assay type: cell-based; conditions: human serum, 2 hours, control CLDN-18.2-negative CHO-K1
# Description: (§3) RiboMab01-containing cell culture supernatant from CHO-K1 cells lipofected with RB_RMAB01 was subjected to (Panel A) ADCC and (Panel B) CDC assays. […] Human PBMCs of three different healthy donors were utilized as effector cells (E:T ratio 30:1). Target or control and effector cells were incubated for 48 hours with the indicated RiboMab01 and IMAB362 reference protein concentrations. Specific cell lysis as determined in a luciferase-based assay is shown. […] Target and control cells were incubated with human serum and RiboMab01 concentrations as indicated for 2 hours. CDC determined in a luciferase-based assay is shown. Error bars are standard errors of the mean (n=3).
# (§4) Mode of action analysis: Antibody-dependent cellular cytotoxicity (ADCC) and complement-dependent cytotoxicity (CDC) in vitro. […] To simulate in vivo conditions, human PBMCs from three different healthy donors were used as effector cells in ADCC assays in an effector to target (E:T) ratio of 30:1 and human serum (e.g., commercially available human serum) was used as a source of complement in CDC assays.
# [4] = system: CLDN-18.2+ NUG-C4 transfectants; assay: In vitro ADCC assay (luciferase-based); assay type: cell-based, human; conditions: for ADCC, cellular cytotoxicity: control cells MDA-MB-231, human PBMCs, E:T 30:1
# Description: as §3, §4
substance,measurement,setting,value
CLDN-18.2-targeting RiboMab: CLDN-18.2-targeting IgG antibody (IMAB362 delivered as ribonucleic acid) expressed from mRNAs encoding heavy and light chain,unspecific lysis on control cells,MDA-MB-231 cells; FIG. 5 Panel C dilution row,weak unspecific lysis
same,unspecific lysis on target-negative cells,MDA-MB-231 cells; NHP serum 24 h and 168 h post dosing,"Low effector, donor-dependent unspecific lysis"
same,ADCC target cell lysis,[1],high and dose-dependent target cell lysis
same,ADCC target cell lysis,[1]; listed as RiboMab01,specific tumor cell lysis
same,ADCC target cell lysis,[2],high and dose-dependent target cell lysis
same,ADCC target cell lysis,[2]; listed as RiboMab01,dose-dependent ADCC
same,pEC50,"[2]; serum of monkey No. 14 (1.6 mg/kg) 48 hours after 3rd dosing or recombinant reference protein, 48 hours incubation",10.18
same,ADCC EC50,"[2]; serum of monkey No. 14, 48 hours after 3rd injection, 10-point dilution row",0.01 µg/mL
same,"CDC, cellular cytotoxicity",[3],target specific and dose-dependent cellular cytotoxicity comparable to the reference protein IMAB362
same,"CDC, cellular cytotoxicity",[3]; listed as RiboMab01,high target specific cell cytotoxicity
same,"ADCC, cellular cytotoxicity",[4],target specific and dose-dependent cellular cytotoxicity comparable to the reference protein IMAB362
same,"ADCC, cellular cytotoxicity",[4]; listed as RiboMab01,high target specific cell cytotoxicity
same,ADCC EC50,"[4]; human PBMCs from three donors, E:T 30:1, 48 hours",0.01 to 0.127 µg/mL

# From patent publication US20240043527A1 (BioNTech SE, priority 2020, published 2024)
